# Data from PubChem BioAssay (NCI).
#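 Test compounds were applied to cells in 96-well plates for 48 hours at 5 doses. TGI: total growth inhibition.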
# Columns and labels:
# Assay in all cases: NCI anticancer screen, dose series, 48 h
# [1] = tested on: 786-0 renal
# [2] = tested on: A498 renal
# [3] = tested on: A549 NSCLC
# [4] = tested on: ACHN renal
# [5] = tested on: CAKI-1 renal
# [6] = tested on: CCRF-CEM leukemia
# [7] = tested on: COLO 205 colon
# [8] = tested on: DLD-1 colon
# [9] = tested on: DMS 114 small cell lung
# [10] = tested on: DMS 273 small cell lung
# [11] = tested on: EKVX NSCLC
# [12] = tested on: HCC-2998 colon
# [13] = tested on: HCT-116 colon
# [14] = tested on: HCT-15 colon
# [15] = tested on: HL-60(TB) leukemia
# [16] = tested on: HOP-62 NSCLC
# [17] = tested on: HT29 colon
# [18] = tested on: IGROV1 ovarian
# [19] = tested on: K-562 leukemia
# [20] = tested on: KM12 colon
# [21] = tested on: KM20L2 colon
# [22] = tested on: LOX IMVI melanoma
# [23] = tested on: LXFL 529 NSCLC
# [24] = tested on: M14 melanoma
# [25] = tested on: M19-MEL melanoma
# [26] = tested on: MALME-3M melanoma
# [27] = tested on: MOLT-4 leukemia
# [28] = tested on: NCI-H226 lung
# [29] = tested on: NCI-H23 lung
# [30] = tested on: NCI-H460 lung
# [31] = tested on: NCI-H522 lung
# [32] = tested on: OVCAR-3 ovarian
# [33] = tested on: OVCAR-4 ovarian
# [34] = tested on: OVCAR-5 ovarian
# [35] = tested on: OVCAR-8 ovarian
# [36] = tested on: RPMI-8226 leukemia
# [37] = tested on: SF-268 CNS
# [38] = tested on: SF-295 CNS
# [39] = tested on: SF-539 CNS
# [40] = tested on: SK-MEL-2 melanoma
# [41] = tested on: SK-MEL-28 melanoma
# [42] = tested on: SK-MEL-5 melanoma
# [43] = tested on: SN12C renal
# [44] = tested on: SNB-19 CNS
# [45] = tested on: SNB-78 CNS
# [46] = tested on: SR leukemia
# [47] = tested on: SW-620 colon
# [48] = tested on: TK-10 renal
# [49] = tested on: U251 CNS
# [50] = tested on: UACC-257 melanoma
# [51] = tested on: UACC-62 melanoma
# [52] = tested on: UO-31 renal
# [53] = tested on: XF 498 CNS
# [54] = tested on: RXF 393 renal
# [55] = tested on: RXF-631 renal
# [56] = tested on: SK-OV-3 ovarian
# [57] = tested on: SNB-75 CNS
smiles,measurement,setting,value
COC(=O)C(=O)C(/C(=N/N)C(=O)Nc1ccccc1C(N)=O)c1nc2ccc([N+](=O)[O-])cc2[nH]c1=O (centres undefined),TGI,[1],> 100 µM
same,TGI,[2],> 100 µM
same,TGI,[3],> 100 µM
same,TGI,[4],> 100 µM
same,TGI,[5],> 100 µM
same,TGI,[6],> 100 µM
same,TGI,[7],> 100 µM
same,TGI,[8],> 100 µM
same,TGI,[9],> 100 µM
same,TGI,[10],> 100 µM
same,TGI,[11],> 100 µM
same,TGI,[12],> 100 µM
same,TGI,[13],> 100 µM
same,TGI,[14],> 100 µM
same,TGI,[15],> 100 µM
same,TGI,[16],> 100 µM
same,TGI,[17],> 100 µM
same,TGI,[18],> 100 µM
same,TGI,[19],> 100 µM
same,TGI,[20],> 100 µM
same,TGI,[21],> 100 µM
same,TGI,[22],> 100 µM
same,TGI,[23],> 100 µM
same,TGI,[24],> 100 µM
same,TGI,[25],> 100 µM
same,TGI,[26],> 100 µM
same,TGI,[27],> 100 µM
same,TGI,[28],> 100 µM
same,TGI,[29],> 100 µM
same,TGI,[30],> 100 µM
same,TGI,[31],> 100 µM
same,TGI,[32],> 100 µM
same,TGI,[33],> 100 µM
same,TGI,[34],> 100 µM
same,TGI,[35],> 100 µM
same,TGI,[36],> 100 µM
same,TGI,[37],> 100 µM
same,TGI,[38],> 100 µM
same,TGI,[39],> 100 µM
same,TGI,[40],> 100 µM
same,TGI,[41],> 100 µM
same,TGI,[42],> 100 µM
same,TGI,[43],> 100 µM
same,TGI,[44],> 100 µM
same,TGI,[45],> 100 µM
same,TGI,[46],> 100 µM
same,TGI,[47],> 100 µM
same,TGI,[48],> 100 µM
same,TGI,[49],> 100 µM
same,TGI,[50],> 100 µM
same,TGI,[51],> 100 µM
same,TGI,[52],> 100 µM
same,TGI,[53],> 100 µM
CCN(CC)Cc1cc(Nc2ccnc3ccc4nn(C)nc4c23)ccc1O,TGI,[1],49.5 µM
same,TGI,[3],80 µM
same,TGI,[4],68.3 µM
same,TGI,[5],> 100 µM
same,TGI,[6],> 100 µM
same,TGI,[7],19.1 µM
same,TGI,[12],26.4 µM
same,TGI,[13],21.5 µM
same,TGI,[14],43.8 µM
same,TGI,[15],> 100 µM
same,TGI,[16],36.8 µM
same,TGI,[17],20.9 µM
same,TGI,[18],99 µM
same,TGI,[19],> 100 µM
same,TGI,[20],25.9 µM
same,TGI,[21],25.3 µM
same,TGI,[22],21.5 µM
same,TGI,[23],27.6 µM
same,TGI,[24],27.9 µM
same,TGI,[25],24.7 µM
same,TGI,[26],31.3 µM
same,TGI,[27],> 100 µM
same,TGI,[28],41.7 µM
same,TGI,[29],29.9 µM
same,TGI,[30],22.5 µM
same,TGI,[31],21.6 µM
same,TGI,[32],68 µM
same,TGI,[33],37 µM
same,TGI,[34],35.7 µM
same,TGI,[35],50.7 µM
same,TGI,[36],> 100 µM
same,TGI,[54],21.6 µM
same,TGI,[55],31.3 µM
same,TGI,[37],36.4 µM
same,TGI,[38],29.1 µM
same,TGI,[39],26.5 µM
same,TGI,[41],27.4 µM
same,TGI,[42],29.9 µM
same,TGI,[56],57.7 µM
same,TGI,[43],86 µM
same,TGI,[44],> 100 µM
same,TGI,[57],26.1 µM
same,TGI,[45],44.9 µM
same,TGI,[46],> 100 µM
same,TGI,[47],28.2 µM
same,TGI,[48],75.6 µM
same,TGI,[49],45.5 µM
same,TGI,[50],27.8 µM
same,TGI,[51],27.4 µM
same,TGI,[52],54 µM
same,TGI,[53],24.3 µM
